Assay results: patent publication US20260069606A1, “Oxidative Stress and Diabetes Treatment with Cobinamide” (The Regents of the University of California, priority 2022, published 2026)

What was measured:
COS-7 cells = system: COS-7 cells
Protocol: FIGS. 3A-3H. […] FIGS. 3A-3B. […] FIG. 3A. […] FIG. 3B. […] FIGS. 3C-3D. […] FIG. 3D. […] FIGS. 3E-3F. […] FIG. 3E. Representative blots are shown. […] FIG. 3F. […] FIG. 3G. […] FIG. 3H.
Finally, whether cobinamide could alleviate the effects of oxidative stress induced by yet another mechanism in a different cell type was tested using paraquat-treated COS-7 cells. Paraquat generates O2·^− through a redox cycling mechanism and increases both intracellular O2·^− and H2O2^42.

[1] = Tolerability in non-diabetic and streptozotocin-diabetic mice (weight, liver and renal function); format: in vivo
Source text: The water was replenished twice a week.
Over the three-month treatment period, the non-diabetic mice gained an average of 4.1±0.8 g. while the diabetic mice lost an average of 0.3 g, with wide variation in weight change among the latter mice.

hearts of diabetic mice = assay: Cardiac fibrosis (collagen deposition, Mallory trichrome) in diabetic mice; format: in vivo; conditions: three months histidyl-cobinamide in drinking water
Protocol: FIGS. 4A-4K. Cobinamide Rescues Flies from Paraquat Poisoning and Prevents Abnormal Lipid and Protein Oxidation, DNA Damage, and Fibrosis in the Hearts of Diabetic Mice. FIG. 4A. At time zero, 10 fruit flies (D. melanogaster) were transferred to vials with food to which either phosphate-buffered saline (PBS), 0.8 mM of the indicated drugs, 20 mM paraquat (PQ), or 20 mM paraquat with 0.8 mM of the indicated drugs had been added. The number of live flies was counted each day for 7 d. The experiment was repeated seven times, for a total of 70 flies per condition. The percent surviving flies was calculated; error bars represent standard deviations and are shown in one direction only for sake of clarity. FIGS. 4B-4K. […] The amount of 8-isoprostane (FIG. 4B) was measured by ELISA, protein oxidation (FIGS. 4C-4D) was assessed by immunoblotting, and nitrotyrosine content (FIGS. 4E-4F) was assessed by immunohistochemistry. DNA damage was assessed by 8-OH-deoxyguanosine staining (FIGS. 4G-4H) and a long amplicon qPCR-based assay (FIG. 4I). Cardiac fibrosis (FIGS. 4J-4K) was assessed by Mallory trichrome staining, which stains collagen blue. […] For Panels C, D, and I, frozen heart samples were selected randomly from each of the four groups and were analyzed. For Panel D, blots were analyzed by densitometric scanning using Li-Cor Odyssey software, with the density of each lane normalized to the actin band. […]

[2] = mice, same amount of cobinamide for six months; cited from earlier work

Structure (SMILES): C/C1=C2/[N-][C@H]([C@H](CC(N)=O)[C@@]2(C)CCC(=O)NC[C@@H](C)O)[C@]2(C)N=C(/C(C)=C3N=C(/C=C4N=C1[C@@H](CCC(N)=O)C\4(C)C)[C@@H](CCC(N)=O)[C@]\3(C)CC(N)=O)[C@@H](CCC(N)=O)[C@]2(C)CC(N)=O.[Co+3] [cobinamide, aquohydroxo-cobinamide]
- Cell growth of paraquat-treated cells (COS-7 cells; COS-7, 1 mM paraquat 3 h, 100 μM drug, counted 48 h later): ~80 % of the control value
- Effect on cell growth, drug alone (COS-7 cells; COS-7, no paraquat): no effect on cell growth
- Average weight gain of cobinamide-treated diabetic mice ([1]; mouse, in vivo): 0.63 g
- Effect on weight ([1]; mouse, in vivo): did not significantly affect weight
- Liver function and renal function tests ([1]; mouse, in vivo): no effect
- Tolerability ([1]; non-diabetic and diabetic mice, three months in drinking water): well tolerated
- Collagen content in hearts of diabetic mice (hearts of diabetic mice): reduced collagen content in the hearts of the diabetic mice essentially to that of non-diabetic mice
- Hematological parameters [2]: did not affect hematological parameters
